The record followed here is ChEMBL document CHEMBL1806455, “Synthesis, activity and pharmacokinetics of novel antibacterial 15-membered ring macrolones” (Eur J Med Chem, 2011).

In brackets after ≈: the same amount, converted by molar mass.

Assay type in all cases: functional
The test system of assay [1] is Staphylococcus aureus. Briefly: Antibacterial activity against erythromycin-sensitive Staphylococcus aureus ATCC 13709 by broth microdilution method. (In general: Broth dilution looks for growth in wells or tubes with falling amounts of substance.)
The subject of assay [2] is Streptococcus pneumoniae. Briefly: Antibacterial activity against erythromycin-sensitive Streptococcus pneumoniae SP030 by broth microdilution method.
The test system of assay [3] is Streptococcus pyogenes. Briefly: Antibacterial activity against erythromycin-sensitive Streptococcus pyogenes 3565 by broth microdilution method.
For assay [4], the system named is Staphylococcus aureus. Nature of the assay: Antibacterial activity against efflux-mediated macrolide-resistant Staphylococcus aureus PK1 by broth microdilution method.
Assay [5] relates to Streptococcus pneumoniae. Nature of the assay: Antibacterial activity against efflux-mediated macrolide-resistant Streptococcus pneumoniae Ci137 by broth microdilution method.
For assay [6], the system named is Streptococcus pyogenes. Briefly: Antibacterial activity against efflux-mediated macrolide-resistance Streptococcus pyogenes 2 Finland by broth microdilution method.
Assay [7] relates to Staphylococcus aureus. Briefly: Antibacterial activity against inducible macrolide-lincosamide-streptogramin B resistant Staphylococcus aureus 90256 by broth microdilution method.
In assay [8] the test system is Streptococcus pneumoniae. Briefly: Antibacterial activity against inducible macrolide-resistant, constitutive lincosamide, streptogramin-resistant Streptococcus pneumoniae 134 GR M by broth microdilution method.
Assay [9] relates to Streptococcus pyogenes. Briefly: Antibacterial activity against inducible macrolide-lincosamide-streptogramin B resistant Streptococcus pyogenes Finland 11 by broth microdilution method.
Assay [10] relates to Staphylococcus aureus. Nature of the assay: Antibacterial activity against constitutive macrolide, lincosamide, streptogramin-resistant Staphylococcus aureus PK2 by broth microdilution method.
Assay [11] has as its system Streptococcus pneumoniae. Briefly: Antibacterial activity against constitutive macrolide, lincosamide, streptogramin-resistant Streptococcus pneumoniae 58 spain by broth microdilution method.
The test system of assay [12] is Streptococcus pyogenes. Nature of the assay: Antibacterial activity against macrolide, lincosamide, streptogramin-resistant Streptococcus pyogenes 166 GR-Micro by broth microdilution method.
A further assay relates to Haemophilus influenzae. Briefly: Antibacterial activity against Haemophilus influenzae ATCC 49247 by broth microdilution method.
A further assay deals with Moraxella catarrhalis. Nature of the assay: Antibacterial activity against Moraxella catarrhalis ATCC 23246 by broth microdilution method.

As for `CC[C@H]1OC(=O)[C@H](C)[C@@H](O[C@H]2C[C@@](C)(OC)[C@@H](OC(=O)CCOCCNc3ccc4c(c3)c(=O)c(C(=O)OCCN3CCCCC3)cn4C3CC3)[C@H](C)O2)[C@H](C)[C@@H](O[C@@H]2O[C@H](C)C[C@H](N(C)C)[C@H]2O)[C@](C)(O)C[C@@H](C)CN(C)[C@H](C)[C@@H](O)[C@]1(C)O`, the MIC in the assay with Staphylococcus aureus [1] is 0.25 mg/L (≈ 0.208 µM); against Streptococcus pneumoniae [2] it was no more than 0.125 mg/L; in the assay with Streptococcus pyogenes [3] it was no more than 0.125 mg/L; against Staphylococcus aureus [4] it was 1 mg/L (≈ 0.832 µM); in the assay with Streptococcus pneumoniae [5] it was no more than 0.125 mg/L; with Streptococcus pyogenes [6], no more than 0.125 mg/L. Moreover, the MIC with Staphylococcus aureus [7] was 4 mg/L (≈ 3.33 µM); against Streptococcus pneumoniae [8], no more than 0.125 mg/L; with Streptococcus pyogenes [9], no more than 0.125 mg/L; in the assay on Staphylococcus aureus [10], greater than 64 mg/L; in the assay on Streptococcus pneumoniae [11] it was no more than 0.125 mg/L; against Streptococcus pyogenes [12], no more than 0.125 mg/L. Further, the MIC in the assay with Haemophilus influenzae came to 8 mg/L (≈ 6.65 µM); against Moraxella catarrhalis, 1 mg/L (≈ 0.832 µM).

With `CC[C@H]1OC(=O)[C@H](C)[C@@H](O[C@H]2C[C@@](C)(OC)[C@@H](OC(=O)CCOCCOc3cc4c(=O)c(C(=O)OC(C)C)cn(C5CC5)c4cc3Cl)[C@H](C)O2)[C@H](C)[C@@H](O[C@@H]2O[C@H](C)C[C@H](N(C)C)[C@H]2O)[C@](C)(O)C[C@@H](C)CN(C)[C@H](C)[C@@H](O)[C@]1(C)O`, the MIC against Staphylococcus aureus [1] is 1 mg/L (≈ 0.856 µM); against Streptococcus pneumoniae [2] it was no more than 0.125 mg/L; against Streptococcus pyogenes [3], no more than 0.125 mg/L; against Staphylococcus aureus [4] it was 4 mg/L (≈ 3.42 µM); against Streptococcus pneumoniae [5], no more than 0.125 mg/L; with Streptococcus pyogenes [6] it was no more than 0.125 mg/L. Moreover, the MIC is 4 mg/L (≈ 3.42 µM) against Staphylococcus aureus [7]; 0.5 mg/L (≈ 0.428 µM) in the assay on Streptococcus pneumoniae [8]; no more than 0.125 mg/L in the assay on Streptococcus pyogenes [9]; greater than 64 mg/L in the assay on Staphylococcus aureus [10]; 0.25 mg/L (≈ 0.214 µM) in the assay on Streptococcus pneumoniae [11]; 0.5 mg/L (≈ 0.428 µM) against Streptococcus pyogenes [12]. For the same molecule, the MIC worked out at 2 mg/L (≈ 1.71 µM) in the assay with Haemophilus influenzae and 0.5 mg/L (≈ 0.428 µM) against Moraxella catarrhalis.

Consider `CC[C@H]1OC(=O)[C@H](C)[C@@H](O[C@H]2C[C@@](C)(OC)[C@@H](OC(=O)CCOCCOc3cc4c(=O)c(C(=O)OCOC(=O)C(C)(C)C)cn(C5CC5)c4cc3Cl)[C@H](C)O2)[C@H](C)[C@@H](O[C@@H]2O[C@H](C)C[C@H](N(C)C)[C@H]2O)[C@](C)(O)C[C@@H](C)CN(C)[C@H](C)[C@@H](O)[C@]1(C)O`, for which the MIC is 1 mg/L (≈ 0.806 µM) with Staphylococcus aureus [1]; no more than 0.125 mg/L against Streptococcus pneumoniae [2]; no more than 0.125 mg/L in the assay on Streptococcus pyogenes [3]; 2 mg/L (≈ 1.61 µM) in the assay on Staphylococcus aureus [4]; no more than 0.125 mg/L in the assay with Streptococcus pneumoniae [5]; no more than 0.125 mg/L in the assay with Streptococcus pyogenes [6]. The MIC was 4 mg/L (≈ 3.22 µM) in the assay on Staphylococcus aureus [7]; 0.25 mg/L (≈ 0.201 µM) with Streptococcus pneumoniae [8]; no more than 0.125 mg/L with Streptococcus pyogenes [9]; greater than 64 mg/L against Staphylococcus aureus [10]; no more than 0.125 mg/L in the assay on Streptococcus pneumoniae [11]; no more than 0.125 mg/L against Streptococcus pyogenes [12]. Besides, the MIC in the assay with Haemophilus influenzae and in the assay on Moraxella catarrhalis was 4 mg/L (≈ 3.22 µM) throughout.

For `CC[C@H]1OC(=O)[C@H](C)[C@@H](O[C@H]2C[C@@](C)(OC)[C@@H](OC(=O)CCOCCOc3ccc4c(c3)c(=O)c(C(=O)OC(C)C)cn4C3CC3)[C@H](C)O2)[C@H](C)[C@@H](O[C@@H]2O[C@H](C)C[C@H](N(C)C)[C@H]2O)[C@](C)(O)C[C@@H](C)CN(C)[C@H](C)[C@@H](O)[C@]1(C)O`, the MIC with Staphylococcus aureus [1] is 1 mg/L (≈ 0.882 µM); in the assay with Streptococcus pneumoniae [2], no more than 0.125 mg/L; against Streptococcus pyogenes [3] it was no more than 0.125 mg/L; in the assay on Staphylococcus aureus [4] it was 16 mg/L (≈ 14.1 µM); against Streptococcus pneumoniae [5], no more than 0.125 mg/L; in the assay with Streptococcus pyogenes [6], no more than 0.125 mg/L. Also, the MIC in the assay with Staphylococcus aureus [7] is 32 mg/L (≈ 28.2 µM); against Streptococcus pneumoniae [8] it was no more than 0.125 mg/L; in the assay on Streptococcus pyogenes [9], no more than 0.125 mg/L; in the assay with Staphylococcus aureus [10] it was greater than 64 mg/L; in the assay on Streptococcus pneumoniae [11], no more than 0.125 mg/L; in the assay on Streptococcus pyogenes [12], no more than 0.125 mg/L. Moreover, the MIC in the assay with Haemophilus influenzae amounted to 4 mg/L (≈ 3.53 µM); against Moraxella catarrhalis it was 2 mg/L (≈ 1.76 µM).

Take `CC[C@H]1OC(=O)[C@H](C)[C@@H](O[C@H]2C[C@@](C)(OC)[C@@H](OC(=O)CCOCCOc3ccc4c(c3)c(=O)c(C(=O)OCC(C)=O)cn4C3CC3)[C@H](C)O2)[C@H](C)[C@@H](O[C@@H]2O[C@H](C)C[C@H](N(C)C)[C@H]2O)[C@](C)(O)C[C@@H](C)CN(C)[C@H](C)[C@@H](O)[C@]1(C)O`: the MIC against Staphylococcus aureus [1] is 0.5 mg/L (≈ 0.435 µM); against Streptococcus pneumoniae [2], no more than 0.125 mg/L; against Streptococcus pyogenes [3] it was no more than 0.125 mg/L; against Staphylococcus aureus [4] it was 1 mg/L (≈ 0.871 µM); against Streptococcus pneumoniae [5] it was 0.25 mg/L (≈ 0.218 µM); with Streptococcus pyogenes [6], no more than 0.125 mg/L. Besides, the MIC is 2 mg/L (≈ 1.74 µM) in the assay with Staphylococcus aureus [7]; 0.25 mg/L (≈ 0.218 µM) in the assay on Streptococcus pneumoniae [8]; no more than 0.125 mg/L against Streptococcus pyogenes [9]; 64 mg/L (≈ 55.7 µM) in the assay on Staphylococcus aureus [10]; 0.5 mg/L (≈ 0.435 µM) with Streptococcus pneumoniae [11]; no more than 0.125 mg/L with Streptococcus pyogenes [12]. In addition, the figures for the MIC in the assay on Haemophilus influenzae and against Moraxella catarrhalis were 2 mg/L (≈ 1.74 µM) and 1 mg/L (≈ 0.871 µM), respectively.
